Entries after “also recorded” stand apart in the source; their conditions may differ. Marks after values point to notes of the source that are not given here.
Legend:
[1] = test system: 5% DSS colitis in BALB/c mice; test: Acute murine 5% DSS colitis model, Experiment 1; type: in vivo; details: for activity in 5% DSS murine colitis (DAI), in words: 30 mg/kg p.o. daily for 7 days
Excerpt: The study is widely used as a model for studying the pathogenesis of UC and also for screening new therapeutic interventions for the treatment of UC.
In these studies, an acute colitis model was used, with 5% DSS administered in the drinking water of BALB/c mice. This dosage regime induces severe acute colitis, by days 7-8 mice had overt rectal bleeding and marked weight loss; unless sacrificed beforehand, all mice would have died by days 10-12.
Specific Pathogen-Free BALB/c mice, 6-8 weeks of age, were obtained from a commercial supplier (Harlan UK). Mice were fed irradiated diet and housed in individually ventilated cages (Tecniplast UK) under positive pressure.
DSS (5%) was dissolved in drinking water. Compounds were administered orally at a dose of 10 mg/kg or 30 mg/kg on days 0-7, and mice were culled on day 8 or day 9, depending on the severity of the disease. The mice were checked each day for morbidity and the weight of individual mice was recorded. Induction of colitis was determined upon autopsy, length of colon and histology. Colons were recovered and stored at −20° C. for immunological analysis. All of the compounds and experimental groups are randomly alphabetically labelled. Throughout experiments all data recording was performed in a blind manner. The codes on boxes/groups were not broken until after the data was analysed i.e. boxes labelled A, B, C etc were identified as untreated, DSS-treated, or DSS+compound-treated.
To quantify the extent of colitis, a disease activity index (DAI) was determined based on weight loss, faecal blood and stool consistency. A score was given for each parameter, with the sum of the scores used as the DAI. For each treatment group n=8.
All compounds were prepared for oral gavage (0.1 mL per os (p.o.) per 10 g body weight) as a suspension in 0.5% carboxymethyl cellulose/2% Tween 80, at a dose of 3-30 mg/Kg.

[2] = Solubility in Milli-RO water and pH buffers; type: physicochemical
Experimental: The sodium salt, potassium salt, calcium salt, α-methylbenzylamine salt and N-Methyl-(D)-Glucamine salt were synthesised.
The solubility of the four compounds were determined: […]

[3] = test system: IL2 release from Jurkat cells; test: Effect of compounds on IL-2 secretion in T lymphocytes (Jurkat 6.1, anti-CD3/anti-CD28 stimulated, ELISA); type: cell-based; details: for IL-2 production, absolute values: 30 min pre-treatment, DMSO control 320.67 (plate 2), 338.25 (plate 3); for IL-2 production, absolute values / activity at 1 µM / activity at 10 µM: 24 h; for activity at 1 µM / activity at 10 µM: Homo sapiens, Jurkat, read-out: IL2 release as percentage of anti-CD3/CD28 stimulated release in presence of DMSO, Mean; for effect on IL2 release, in words: 1 and 10 μM
Experimental: The T cell line Jurkat 6.1 (ATCC) was used. Cells were pre-treated for 30 min with 1 μM or 10 μM of the respective compound and then stimulated with plate-bound anti-CD3 (BD Pharmingen) and anti-CD28 (AnCell). DMSO was used as vehicle control. […] After 24 hs the supernatant was collected and IL-2 secretion was measured by ELISA.
Compounds were prepared by dissolution in DMSO to yield final concentrations of 1 and 10 μg/ml

[4] = Partition coefficient (Log10 POW) by HPLC method; type: physicochemical; details: reverse phase C18 HPLC
[5] = day 7, 10 mg/kg daily for 7 days, vehicle 9.3±0.51
[6] = day 7, 30 mg/kg p.o. daily for 7 days, vehicle 9.0±0.53

Structure (SMILES)	IL-2 production, absolute values ([3]; compound 1 uM) [pg/mL]	IL-2 production, absolute values ([3]; compound 10 uM) [pg/mL]	activity at 1 µM [3] [%]	activity at 10 µM [3] [%]	further results
O=C(O)c1ccc(C[C@@]2(C3=Cc4ccccc4C3)Cc3ccccc3[C@H]2O)cc1 (single isomer, unassigned) [Compound 2]	98.71	124.36	–	–	activity in 5% DSS murine colitis (DAI), in words [1]: highly active; potency compared among the four enantiomers, in words ([1]; 30 and 10 mg/kg): most potent of the four enantiomers; disease activity index (DAI) [1, 5]: 2.1±0.7; disease activity index (DAI) [1, 6]: 2.5±0.71; aqueous solubility, in words ([2]; free acid enantiomers): limited aqueous solubility
O=C(O)c1ccc(C[C@]2(C3=Cc4ccccc4C3)Cc3ccccc3[C@@H]2O)cc1 (single isomer, unassigned) [Compound 3]	150.07	98.57	–	–	activity in 5% DSS murine colitis (DAI), in words [1]: minimal activity; disease activity index (DAI) [1, 6]: 5.3±0.6
O=C(O)c1ccc(C[C@@]2(C3=Cc4ccccc4C3)Cc3ccccc3[C@@H]2O)cc1 [Compound 4, 4-(((1R,2S)-1-hydroxy-2,3-dihydro-1H,1′H-2,2′-biinden-2-yl)methyl)benzoic acid]	97.21	94.21	–	–	activity in 5% DSS murine colitis (DAI), in words [1]: without activity; also recorded: almost devoid of activity
CNCC(O)C(O)C(O)C(O)CO.O=C(O)c1ccc(C[C@]2(C3=Cc4ccccc4C3)Cc3ccccc3[C@H]2O)cc1 [Compound 7, 6-(Methylamino)hexane-1,2,3,4,5-pentanol 4-(((1S,2R)-1-hydroxy-2,3-dihydro-1H,1′H-2,2′-biinden-2-yl)methyl)benzoate]	–	–	–	–	disease activity index (DAI) [1, 5]: no significant (P>0.05) effect; solubility, Milli-RO H20 ([2]; Milli-RO water, listed as Compound 5 N-Methyl-D-Glucamine salt): >60,000* μg/mL; solubility, pH 4.0 Buffer ([2]; pH 4.0 buffer): 0.14 μg/mL; solubility, pH 7.0 Buffer ([2]; pH 7.0 buffer, listed as Compound 5 N-Methyl-D-Glucamine salt): >60,000* μg/mL; solubility, pH 9.0 Buffer ([2]; pH 9.0 buffer, listed as Compound 5 N-Methyl-D-Glucamine salt): >60,000* μg/mL; Log10 POW, Acid ([4]; acidic pH): 3.8; Log10 POW, Basic ([4]; alkaline pH): 3.5; Log10 POW, Neutral ([4]; neutral pH): 3.5
CNC(=O)c1ccc(C[C@]2(C3=Cc4ccccc4C3)Cc3ccccc3[C@@H]2OC(=O)[C@@H](N)CC(C)C)cc1 [Compound 37, (1R,2R)-2-[4-(methylcarbamoyl)benzyl]-2,3-dihydro-1H,1′H-2,2′-biinden-1-yl L-leucinate]	275.50	79.00	99.2	50.2	–
CC(C)C[C@H](N)C(=O)O[C@H]1c2ccccc2C[C@]1(Cc1ccc(C(=O)N(C)C)cc1)C1=Cc2ccccc2C1 [Compound 38, (1R,2R)-2-[4-(dimethylcarbamoyl)benzyl]-2,3-dihydro-1H,1′H-2,2′-biinden-1-yl L-leucinate]	226.75	268.63	107	62.7	effect on IL2 release, in words [3]: inactive
COC(=O)c1ccc(C[C@@]2(C3=Cc4ccccc4C3)Cc3ccccc3[C@H]2OC(=O)[C@@H](N)CC(C)C)cc1 [Compound 39, methyl 4-(((1S,2S)-1-(((S)-2-amino-4-methylpentanoyl)oxy)-2,3-dihydro-1H,1′H-[2,2′-biinden]-2-yl)methyl)benzoate]	105.94	40.69	73.7	21.7	–
CCOC(=O)c1ccc(C[C@@]2(C3=Cc4ccccc4C3)Cc3ccccc3[C@H]2OC(=O)[C@@H](N)CC(C)C)cc1 [Compound 40, ethyl 4-(((1S,2S)-1-(((S)-2-amino-4-methylpentanoyl)oxy)-2,3-dihydro-1H,1′H-[2,2′-biinden]-2-yl)methyl)benzoate]	84.86	12.71	82.6	20.9	–
CCCOC(=O)c1ccc(C[C@@]2(C3=Cc4ccccc4C3)Cc3ccccc3[C@H]2OC(=O)[C@@H](N)CC(C)C)cc1 [Compound 41, propyl 4-(((1S,2S)-1-(((S)-2-amino-4-methylpentanoyl)oxy)-2,3-dihydro-1H, 1′H-[2,2′-biinden]-2-yl)methyl)benzoate]	99.50	62.50	77	42.1	–
CC(C)C[C@H](N)C(=O)O[C@@H]1c2ccccc2C[C@@]1(Cc1ccc(C(N)=O)cc1)C1=Cc2ccccc2C1 [Compound 42, (1S,2S)-2-(4-carbamoylbenzyl)-2,3-dihydro-1H,1′H-2,2′-biinden-1-yl L-leucinate]	77.71	49.57	76.1	30	–
CC(C)C[C@H](N)C(=O)O[C@@H]1c2ccccc2C[C@@]1(Cc1ccc(C(=O)NCCO)cc1)C1=Cc2ccccc2C1 [Compound 43, (1S,2S)-2-{4-[(2-Hydroxyethyl)carbamoyl]benzyl}-2,3-dihydro-1H,1′H-2,2′-biinden-1-yl leucinate]	97.57	12.79	72.4	8.4	effect on IL2 release, in words [3]: greatest inhibition of IL2 release
CNC(=O)c1ccc(C[C@@]2(C3=Cc4ccccc4C3)Cc3ccccc3[C@H]2OC(=O)[C@@H](N)CC(C)C)cc1 [Compound 44, (1S,2S)-2-[4-(methylcarbamoyl)benzyl]-2,3-dihydro-1H,1′H-2,2′-biinden-1-yl L-leucinate]	72.50	12.43	76.2	21	–
CC(C)C[C@H](N)C(=O)O[C@@H]1c2ccccc2C[C@@]1(Cc1ccc(C(=O)N(C)C)cc1)C1=Cc2ccccc2C1 [Compound 45, (1S,2S)-2-[4-(dimethylcarbamoyl)benzyl]-2,3-dihydro-1H,1′H-2,2′-biinden-1-yl L-leucinate]	56.07	14.29	51.5	1.5	effect on IL2 release, in words [3]: greatest inhibition of IL2 release
O=C(Nc1ccc(O)c(C(=O)O)c1)c1ccc(C[C@]2(C3=Cc4ccccc4C3)Cc3ccccc3[C@@H]2O)cc1 [Compound 46, 2-hydroxy-5-(4-(((1R,2R)-1-hydroxy-2,3-dihydro-1H,1′H-[2,2′-biinden]-2-yl)methyl)benzamido)benzoic acid]	92.21	72.07	–	–	–
C[C@]12C=CC(=O)C=C1CC[C@@H]1[C@@H]2[C@@H](O)C[C@@]2(C)[C@H]1CC[C@]2(O)C(=O)CO [Prednisolone, reference compound]	–	–	–	–	DAI on the day of autopsy versus vehicle controls ([1]; 5 mg/kg): reduced DAI scores; colon cytokine levels (IL1β, TNFα, IL6) ([1]; day 7, Prednisolone 5 mg/kg): reduced (p<0.05); inhibition of colon shortening versus vehicle controls ([1]; day 7, Prednisolone 5 mg/kg): did have a significant effect; reduction of colonic myeloperoxidase (MPO) activity ([1]; day 7, Prednisolone 5 mg/kg): 54%; colon pathology (histology score) relative to vehicle ([1]; prednisolone 5 mg/Kg): no significant improvement

— US20150141506A1, “INDANE DIMERS FOR USE IN THE TREATMENT OF AUTOIMMUNE INFLAMMATORY DISEASE” (Venantius Limited, priority 2012, published 2015)
